Patent US10280159B2 (AbbVie Deutschland GmbH & Co. KG, priority 2015, dated 2019)
Where a name gives a salt, the structure may show the parent alone.

Tests used:
Type in all cases: cell-based
[1] = target: T1, human S1PR1 (Homo sapiens, UniProt P21453); experiment: Intracellular Ca2+ release (FLIPR) agonist potency, S1P1; settings: recombinant CHO-K1 cells expressing human S1PR1, aequorin, Gq/i5; Calcium 5 FLIPR; read-out: S1P1 EC50
T1 construct: host or cells: CHO-K1
Experimental: (§1) Agonistic activity was measured using the method described below.
(§2) Intracellular Ca^2+ Release
(§3) Agonist potency and intrinsic activity was assessed by measurement of intracellular Ca^2+ release. Recombinant CHO-K1 cells (Euroscreen, Brussels, Belgium) expressing human S1PR5, S1PR1, S1PR3 or S1PR4 receptors, aequorin, and GTP binding protein Gq/i5 were cultured using a medium containing nutrient mixture F-12 Ham (Sigma-Aldrich) with 10% FBS, and 100 μg/mL gentamicin and equilibrated at 5% CO2.
(§4) Phospho-fingolimod was used as positive control. Antagonists were pre-incubated for 10 min with cells before addition of the agonist (phospho-fingolimod at EC80). Measurements were performed using a fluorometric imaging plate reader FLIPR®tetra (Molecular Devices). Agonist at the human S1P receptors were characterized by deducing EC50 (potency) values from a nonlinear fit to the measured fluorescence raw data after normalization to the reference agonist (phospho-fingolimod) curve.

[2] = target: T2, human S1PR4 (Homo sapiens, UniProt O95977); experiment: Intracellular Ca2+ release (FLIPR) agonist potency, S1P4; settings: recombinant CHO-K1 cells expressing human S1PR4, aequorin, Gq/i5; Calcium 5 FLIPR; read-out: S1P4 EC50
T2 construct: host or cells: CHO-K1
T2 sequence (O95977 1-384): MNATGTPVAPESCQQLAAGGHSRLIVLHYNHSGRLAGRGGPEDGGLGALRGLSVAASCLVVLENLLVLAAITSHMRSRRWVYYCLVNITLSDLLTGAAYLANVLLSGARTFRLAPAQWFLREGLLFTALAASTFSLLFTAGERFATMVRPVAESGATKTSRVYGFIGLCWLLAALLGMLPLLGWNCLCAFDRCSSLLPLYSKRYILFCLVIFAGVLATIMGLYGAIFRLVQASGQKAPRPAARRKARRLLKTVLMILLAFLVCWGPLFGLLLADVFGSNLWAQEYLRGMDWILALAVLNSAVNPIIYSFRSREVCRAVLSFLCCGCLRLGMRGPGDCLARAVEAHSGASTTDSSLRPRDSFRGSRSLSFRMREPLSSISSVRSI
Experimental: as §1, §2, §3, §4

[3] = target: T3, human S1PR5 (Homo sapiens, UniProt Q9H228); experiment: Intracellular Ca2+ release (FLIPR) agonist potency, S1P5; settings: recombinant CHO-K1 cells expressing human S1PR5, aequorin, Gq/i5; Calcium 5 FLIPR; read-out: S1P5 EC50 range
T3 construct: host or cells: CHO-K1
T3 sequence (Q9H228 whole entry): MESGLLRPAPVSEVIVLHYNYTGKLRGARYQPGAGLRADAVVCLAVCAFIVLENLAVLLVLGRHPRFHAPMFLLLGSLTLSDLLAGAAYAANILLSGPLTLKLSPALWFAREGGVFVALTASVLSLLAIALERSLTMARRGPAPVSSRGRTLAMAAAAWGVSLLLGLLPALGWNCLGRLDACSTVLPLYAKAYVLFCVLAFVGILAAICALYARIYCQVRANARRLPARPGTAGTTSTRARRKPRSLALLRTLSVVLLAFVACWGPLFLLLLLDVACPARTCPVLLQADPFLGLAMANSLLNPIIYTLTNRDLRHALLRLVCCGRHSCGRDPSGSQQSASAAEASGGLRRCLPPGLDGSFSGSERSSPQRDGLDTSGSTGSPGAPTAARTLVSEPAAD
Experimental: as §1, §2, §3, §4

T1 sequence (P21453 whole entry): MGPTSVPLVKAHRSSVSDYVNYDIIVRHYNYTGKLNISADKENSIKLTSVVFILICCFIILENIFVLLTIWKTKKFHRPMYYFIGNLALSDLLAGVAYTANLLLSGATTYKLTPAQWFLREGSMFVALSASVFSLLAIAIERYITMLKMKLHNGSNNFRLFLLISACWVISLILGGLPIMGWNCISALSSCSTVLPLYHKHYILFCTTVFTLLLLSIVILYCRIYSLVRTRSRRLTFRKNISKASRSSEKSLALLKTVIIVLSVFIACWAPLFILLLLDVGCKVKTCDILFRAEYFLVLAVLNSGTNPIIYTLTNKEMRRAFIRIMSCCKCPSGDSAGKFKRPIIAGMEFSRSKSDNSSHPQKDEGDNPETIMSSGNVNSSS

SMILES | EC50 [1] [nM] | EC50 [2] [nM] | EC50 [3] [nM]
CCCC1(C(=O)O)CN([C@@H]2COc3cc(OCc4c(Cl)cccc4Cl)ccc3C2)C1 [Compound 141, (S)-1-(7-((2,6-dichlorobenzyl)oxy)chroman-3-yl)-3-propylazetidine-3-carboxylic acid] | > 1000 | > 1000 | 1000 to 10000
O=C(O)C1CN(C2COc3cc(OCc4ccc(F)c(C(F)(F)F)c4)ccc3C2)C1 (centres unmarked) [Compound 85, 1-[7-[[4-fluoro-3-(trifluoromethyl)phenyl]methoxy]chroman-3-yl]azetidine-3-carboxylic acid] | > 1000 | > 1000 | 1000 to 10000
O=C(O)C1CN(C2COc3cc(OCc4cc(F)ccc4C(F)(F)F)ccc3C2)C1 (centres unmarked) [Compound 91, 1-[7-[[5-fluoro-2-(trifluoromethyl)phenyl]methoxy]chroman-3-yl]azetidine-3-carboxylic acid] | > 1000 | > 1000 | 100 to 1000
O=C(O)C1CCN(C2COc3cc(OCc4c(Cl)cccc4Cl)ccc3C2)CC1 (centres unmarked) [Compound 110, 1-[7-[(2,6-dichlorophenyl)methoxy]chroman-3-yl]piperidine-4-carboxylic acid; Salt with 2,2,2-trifluoroacetic acid] | > 1000 | < 1000 | 10 to 100
Cc1ccc(Cl)c(COc2ccc3c(c2)CCC(OCC(=O)O)C3)c1F (centres unmarked) [Compound 150, 2-[6-[(6-chloro-2-fluoro-3-methyl-phenyl)methoxy]tetralin-2-yl]oxyacetic acid] | > 1000 | > 1000 | 1000 to 10000
O=C(O)CNC1COc2cc(-c3ccc(OCc4ccccc4)cc3)ccc2C1 (centres unmarked) [Compound 237, 2-((7-(4-(benzyloxy)phenyl)chroman-3-yl)amino)acetic acid] | > 1000 | > 1000 | < 10
O=C(O)CCOC1CCc2cc(OCc3cccc(OC(F)(F)F)c3)ccc2C1 (centres unmarked) [Compound 184, 3-[6-[[3-(trifluoromethoxy)phenyl]methoxy]tetralin-2-yl]oxypropanoic acid] | > 1000 | > 1000 | 1000 to 10000
O=C(O)COC1CCc2cc(OCc3cccc(Cl)c3)ccc2C1 (centres unmarked) [Compound 205, 2-[6-[(3-chlorophenyl)methoxy]tetralin-2-yl]oxyacetic acid] | > 1000 | > 1000 | 100 to 1000
Cc1ccc(C(F)(F)F)c(COc2ccc3c(c2)CCC(OCC(=O)O)C3)c1 (centres unmarked) [Compound 195, 2-[6-[[5-methyl-2-(trifluoromethyl)phenyl]methoxy]tetralin-2-yl]oxyacetic acid] | > 1000 | > 1000 | 1000 to 10000
Cc1cc(F)cc(COc2ccc3c(c2)OCC(N2CC(C(=O)O)C2)C3)c1 (centres unmarked) [Compound 87, 1-[7-[(3-fluoro-5-methyl-phenyl)methoxy]chroman-3-yl]azetidine-3-carboxylic acid] | > 1000 | > 1000 | 1000 to 10000
O=C(O)CCOC1CCc2cc(OCc3ccc(OC(F)(F)F)cc3)ccc2C1 (centres unmarked) [Compound 185, 3-[6-[[4-(trifluoromethoxy)phenyl]methoxy]tetralin-2-yl]oxypropanoic acid] | > 1000 | > 1000 | 1000 to 10000
O=C(O)C1CN(C2COc3cc(OCc4cc(OC(F)(F)F)ccc4F)ccc3C2)C1 (centres unmarked) [Compound 104, 1-[7-[[2-fluoro-5-(trifluoromethoxy)phenyl]methoxy]chroman-3-yl]azetidine-3-carboxylic acid] | > 1000 | > 1000 | 100 to 1000
O=C(O)C1CN(C2COc3cc(C#Cc4cccc(F)c4F)ccc3C2)C1 (centres unmarked) [Compound 26, 1-(7-((2,3-difluorophenyl)ethynyl)chroman-3-yl)azetidine-3-carboxylic acid] | > 1000 | > 1000 | 10 to 100
COc1cccc(COc2ccc3c(c2)CCC(OCC(=O)O)C3)c1 (centres unmarked) [Compound 154, 2-[6-[(3-methoxyphenyl)methoxy]tetralin-2-yl]oxyacetic acid] | > 1000 | > 1000 | 1000 to 10000
O=C(O)COC1CCc2cc(OCc3cc(Cl)ccc3C(F)(F)F)ccc2C1 (centres unmarked) [Compound 153, 2-[6-[[5-chloro-2-(trifluoromethyl)phenyl]methoxy]tetralin-2-yl]oxyacetic acid] | > 1000 |  | 
O=C(O)COC1CCc2cc(OCc3ccc(C(F)(F)F)cc3)ccc2C1 (centres unmarked) [Compound 202, 2-[6-[[4-(trifluoromethyl)phenyl]methoxy]tetralin-2-yl]oxyacetic acid] | > 1000 | > 1000 | 
Cc1ccccc1COc1ccc2c(c1)CCC(OCC(=O)O)C2 (centres unmarked) [Compound 197, 2-[6-(o-tolylmethoxy)tetralin-2-yl]oxyacetic acid] | > 1000 | < 1000 | 
O=C(O)C1CN(C2COc3cc(OCc4cccc(F)c4F)ccc3C2)C1 (centres unmarked) [Compound 51, 1-(7-((2,3-difluorobenzyl)oxy)chroman-3-yl)azetidine-3-carboxylic acid] | > 1000 | > 1000 | 
O=C(O)CCOC1CCc2cc(OCc3ccccc3C(F)(F)F)ccc2C1 (centres unmarked) [Compound 178, 3-[6-[[2-(trifluoromethyl)phenyl]methoxy]tetralin-2-yl]oxypropanoic acid] | > 1000 |  | 1000 to 10000
O=C(O)CCOC1CCc2cc(OCc3cccc(C(F)(F)F)c3)ccc2C1 (centres unmarked) [Compound 193, 3-[6-[[3-(trifluoromethyl)phenyl]methoxy]tetralin-2-yl]oxypropanoic acid] | > 1000 | < 1000 | 
O=C(O)CCOC1CCc2cc(OCc3cccc(Cl)c3)ccc2C1 (centres unmarked) [Compound 187, 3-[6-[(3-chlorophenyl)methoxy]tetralin-2-yl]oxypropanoic acid] | > 1000 | > 1000 | 
O=C(O)COC1CCc2cc(OCc3ccccc3F)ccc2C1 (centres unmarked) [Compound 215, 2-[6-[(2-fluorophenyl)methoxy]tetralin-2-yl]oxyacetic acid] | > 1000 |  | 1000 to 10000

The next lines start with the values.

EC50 [1] [nM] | EC50 [2] [nM] | EC50 [3] [nM] | SMILES
> 1000 | > 1000 | 1000 to 10000 | O=C(O)COC1CCc2cc(OCc3cccc(F)c3F)ccc2C1 (centres unmarked) [Compound 204, 2-[6-[(2,3-difluorophenyl)methoxy]tetralin-2-yl]oxyacetic acid]
> 1000 | < 1000 | < 10 | CCc1cccc(Cl)c1COc1ccc2c(c1)OCC(N(C)CC(=O)O)C2 (centres unmarked) [Compound 124, N-(7-((2-chloro-6-ethylbenzyl)oxy)chroman-3-yl)-N-methylglycine]
> 1000 | > 1000 | 1000 to 10000 | Cc1cccc(COc2ccc3c(c2)OCC(N2CC(C(=O)O)C2)C3)c1F (centres unmarked) [Compound 105, 1-[7-[(2-fluoro-3-methyl-phenyl)methoxy]chroman-3-yl]azetidine-3-carboxylic acid]
> 1000 | > 1000 | 1000 to 10000 | O=C(O)CCOC1CCc2cc(OCc3ccc(Cl)cc3)ccc2C1 (centres unmarked) [Compound 191, 3-[6-[(4-chlorophenyl)methoxy]tetralin-2-yl]oxypropanoic acid]
> 1000 | > 1000 | 1000 to 10000 | O=C(O)C1CN(C2COc3cc(OCc4cc(Cl)ccc4Cl)ccc3C2)C1 (centres unmarked) [Compound 52, 1-(7-((2,5-dichlorobenzyl)oxy)chroman-3-yl)azetidine-3-carboxylic acid]
> 1000 | > 1000 | 1000 to 10000 | CSc1ccc(COc2ccc3c(c2)CCC(OCC(=O)O)C3)cc1 (centres unmarked) [Compound 201, 2-[6-[(4-methylsulfanylphenyl)methoxy]tetralin-2-yl]oxyacetic acid]
> 1000 | > 1000 | 1000 to 10000 | O=C(O)C1CN(C2COc3cc(Oc4c(Cl)cccc4Cl)ccc3C2)C1 (centres unmarked) [Compound 229, 1-[7-(2,6-dichlorophenoxy)chroman-3-yl]azetidine-3-carboxylic acid]
< 1000 | < 1000 | 10 to 100 | CCc1cccc(Cl)c1COc1ccc2c(c1)OCC(NC1(C(=O)O)CCC1)C2 (centres unmarked) [Compound 120, 1-((7-((2-chloro-6-ethylbenzyl)oxy)chroman-3-yl)amino)cyclobutane-1-carboxylic acid]
> 1000 | > 1000 | 1000 to 10000 | CCCc1ccc(COc2ccc3c(c2)OCC(N2CC(C(=O)O)C2)C3)c(OC)c1 (centres unmarked) [Compound 148, 1-(7-((2-methoxy-4-propylbenzyl)oxy)chroman-3-yl)azetidine-3-carboxylic acid]
> 1000 | > 1000 |  | O=C(O)C1CN(C2COc3cc(OCc4c(F)cccc4F)ccc3C2)C1 (centres unmarked) [Compound 60, 1-(7-((2,6-difluorobenzyl)oxy)chroman-3-yl)azetidine-3-carboxylic acid]
